For one data set, the target named is KDR (VEGFR2) (Homo sapiens, UniProt P35968). Nature of the data set: Cerep kinase screen. In kind it is biochemical. As to conditions: read-out: % Inhibition of Control. The procedure: (§1) Kinase screening was performed by Cerep Laboratories (Celle l′Evescault, France). Compounds were screened in duplicate at a single concentration (10 μM). The results, set forth in Table 4 below, are expressed as percent inhibition of control specific activity: {100−[(measured specific activity/control specific activity)×100]} obtained in the presence of Compound XI and Compound V. ATP concentrations correspond to the ATP Km value for each individual kinase (Cerep, private communication). In each experiment, a reference compound was tested concurrently with Compound XI and Compound V in order to assess the assay reliability. IC50 values for the reference compounds were within accepted limits (±0.5 log units) of the historic average.

The target of the next data set is PDGFRβ (Homo sapiens, UniProt P09619). Nature of the data set: Cerep kinase screen. Format: biochemical. As to conditions: read-out: % Inhibition of Control. As to the method: as §1
For the next data set, the target named is Fyn (Homo sapiens, UniProt P06241). Nature of the data set: Cerep kinase screen. Format: biochemical. Particulars: read-out: % Inhibition of Control. As to the method:
as §1

The target of the next data set is FGFR2 (Homo sapiens, UniProt P21802). Nature of the data set: Cerep kinase screen. In kind it is biochemical. Particulars: read-out: % Inhibition of Control. The procedure:
as §1

Another data set addresses C-Met (HGFR) (Homo sapiens, UniProt P08581). Nature of the data set: Cerep kinase screen. In kind it is biochemical. Particulars: read-out: % Inhibition of Control. The procedure:
as §1

A further data set has as its target FLT-3 (Homo sapiens, UniProt P36888). Nature of the data set: Cerep kinase screen. As to conditions: read-out: % Inhibition of Control. Format: biochemical. The procedure: as §1
The target of the next data set is Lyn (Homo sapiens, UniProt P07948). Nature of the data set: Cerep kinase screen. As to conditions: read-out: % Inhibition of Control. In kind it is biochemical. The procedure: as §1
Lyn, sequence (P07948 whole entry, species assumed): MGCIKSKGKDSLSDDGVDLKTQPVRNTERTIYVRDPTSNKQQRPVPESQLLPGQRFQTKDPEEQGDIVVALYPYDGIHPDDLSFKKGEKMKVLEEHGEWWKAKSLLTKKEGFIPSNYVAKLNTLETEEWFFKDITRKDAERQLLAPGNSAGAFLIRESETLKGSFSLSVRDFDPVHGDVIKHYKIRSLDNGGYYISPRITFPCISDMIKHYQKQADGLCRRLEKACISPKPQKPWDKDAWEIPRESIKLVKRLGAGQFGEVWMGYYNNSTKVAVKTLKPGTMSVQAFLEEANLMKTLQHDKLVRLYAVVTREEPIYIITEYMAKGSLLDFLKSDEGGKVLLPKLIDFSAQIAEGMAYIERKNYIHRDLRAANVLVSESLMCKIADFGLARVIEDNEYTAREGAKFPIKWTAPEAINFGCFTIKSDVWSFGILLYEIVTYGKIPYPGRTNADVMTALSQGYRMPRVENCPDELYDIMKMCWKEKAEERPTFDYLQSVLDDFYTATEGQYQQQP
Another data set concerns the target CSK (Homo sapiens, UniProt P41240). Nature of the data set: Cerep kinase screen. Format: biochemical. Particulars: read-out: % Inhibition of Control. As to the method: as §1
The next data set has as its target FGFR4 (Homo sapiens, UniProt P22455). Nature of the data set: Cerep kinase screen. In kind it is biochemical. Particulars: read-out: % Inhibition of Control. As to the method:
as §1

In the next data set the target is FLT-1 (Homo sapiens, UniProt P17948). Nature of the data set: Cerep kinase screen. As to conditions: read-out: % Inhibition of Control. In kind it is biochemical. The procedure: as §1
FLT-1, sequence (P17948 27-1338, species assumed): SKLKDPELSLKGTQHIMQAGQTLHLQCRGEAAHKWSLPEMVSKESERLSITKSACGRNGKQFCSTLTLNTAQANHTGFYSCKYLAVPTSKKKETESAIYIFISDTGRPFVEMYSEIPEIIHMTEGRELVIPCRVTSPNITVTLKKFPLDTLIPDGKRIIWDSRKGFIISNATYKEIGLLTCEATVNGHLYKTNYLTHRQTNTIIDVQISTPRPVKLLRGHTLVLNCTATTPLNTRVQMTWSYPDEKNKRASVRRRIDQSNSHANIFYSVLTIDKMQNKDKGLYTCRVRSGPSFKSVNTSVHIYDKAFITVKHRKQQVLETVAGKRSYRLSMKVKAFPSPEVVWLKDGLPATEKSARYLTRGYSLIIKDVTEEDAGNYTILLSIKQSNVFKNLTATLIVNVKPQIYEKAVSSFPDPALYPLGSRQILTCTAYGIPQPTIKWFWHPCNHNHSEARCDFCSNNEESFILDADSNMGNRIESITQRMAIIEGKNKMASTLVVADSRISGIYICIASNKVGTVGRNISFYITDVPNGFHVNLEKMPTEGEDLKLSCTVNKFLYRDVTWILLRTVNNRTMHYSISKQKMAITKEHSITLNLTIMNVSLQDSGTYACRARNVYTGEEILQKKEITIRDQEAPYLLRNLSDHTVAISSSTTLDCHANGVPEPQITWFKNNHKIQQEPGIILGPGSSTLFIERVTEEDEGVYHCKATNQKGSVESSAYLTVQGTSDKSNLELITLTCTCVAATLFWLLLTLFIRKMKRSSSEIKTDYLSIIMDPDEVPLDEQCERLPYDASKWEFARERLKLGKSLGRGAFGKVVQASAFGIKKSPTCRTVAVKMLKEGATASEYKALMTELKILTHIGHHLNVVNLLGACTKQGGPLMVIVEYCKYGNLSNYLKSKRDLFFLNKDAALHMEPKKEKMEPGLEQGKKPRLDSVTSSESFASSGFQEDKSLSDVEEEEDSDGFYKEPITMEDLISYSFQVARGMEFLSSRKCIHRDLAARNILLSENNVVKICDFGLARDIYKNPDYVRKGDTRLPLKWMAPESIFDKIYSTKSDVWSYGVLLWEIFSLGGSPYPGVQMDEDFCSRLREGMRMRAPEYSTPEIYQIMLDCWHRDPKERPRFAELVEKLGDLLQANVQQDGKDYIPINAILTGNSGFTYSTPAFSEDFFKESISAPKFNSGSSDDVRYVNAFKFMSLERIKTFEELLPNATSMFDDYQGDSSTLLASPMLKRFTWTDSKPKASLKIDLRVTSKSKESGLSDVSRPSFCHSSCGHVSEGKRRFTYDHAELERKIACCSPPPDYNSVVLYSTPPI
A further data set concerns wild-type CHO cells. Nature of the data set: Cytotoxicity (MTS) in wild-type CHO cells. In kind it is cell-based, Chinese Hamster. As to the method: CHO cells: Chinese Hamster Ovary (CHO) DUKXB11 cells were grown under standard cell culture conditions in α-MEM supplemented with 10% FCS, 1 unit/ml each of hypoxanthine and thymidine, and penicillin (100 IU/ml) and streptomycin (100 μg/ml) according to literature methods (Ding S, et al., Arch. Biochem. Biophys., 348: 403-410, 1997, the contents of which are incorporated herein by reference). Cells were grown at 37° C. in a humidified atmosphere plus 5% CO2.
(§2) A single cell suspension of CHO, CHO/CYP1A1 or CHO/CYP1B1 in 100 μl of the required cell culture medium was seeded onto 96-well plates at a cell density of 1500 cells per well and placed in an incubator for 24 h at 37° C. The stock solution of test compound in DMSO was then added to give a concentration range of 100, 30, 10, 3, 1, 0.3, 0.1, 0.03, 0.01, 0.003, 0.001, 0 μM. The final concentration of DMSO 0.2% was found not to affect the growth characteristics of the various CHO cell lines. The cells were incubated with the test compound for 96 h after which all the medium was aspirated and replaced with 100 μl of fresh medium to compensate for the loss of medium due to evaporation. The cells were incubated with 20 μl of the MTS assay reagent for 1.5 h and the absorbance per well at 510 nm measured using a plate reader. The mean absorbance and standard deviation for each test compound concentration was calculated versus a series of controls including (a) cells plus medium, (b) cell plus medium containing DMSO 0.2%, (c) medium alone, and (d) medium containing DMSO 0.2% and a range of test compound concentrations from 0 to 100 μM.
(§3) The MTS assay is a homogeneous, colorimetric method for determining the number of viable cells in proliferation, cytotoxicity or chemosensitivity assays (Cali J J, et al., “Luminescence-Based Methods and Probes for Measuring Cytochrome P450 Activity”, pp. 1-29. Promega Corporation, United States, 2004, the contents of which are incorporated herein by reference). The assay is composed of solutions of tetrazolium compound [3-(4,5-dimethylthiazol-2-yl)-5-(3-carboxymethoxyphenyl)-2-(4-sulfophenyl)-2H-tetrazolium, inner salt; MTS] and an electron coupling reagent (phenazine methosulfate) PMS. MTS is bioreduced by cells into a formazan product that is soluble in tissue culture medium. The absorbance of the formazan product at 510 nm can be directly measured from 96-well assay plates. The quantity of formazan product as measured by the amount of absorbance at 490 or 510 nm is directly proportional to the number of living cells in culture.

The target of the next data set is CYP3A5 (Homo sapiens, UniProt P20815). Nature of the data set: CYP phenotyping, metabolic stability. Format: in vitro ADME. As to conditions: CYP3A5 (10 pm/mL); 1 μM; after 60 minutes. The procedure:
As mentioned above, a feature of the compounds of the invention is their metabolism by CYP1B1 which is expressed at high frequency in a wide range of human cancers of different histogenetic types, but not in normal tissues. […] Compounds V and II were exposed to a panel of six CYPs (see Table 5 below).
CYP metabolism studies were performed by Cerep Laboratories (Redmond, Wash., USA). Compounds were screened in duplicate at 1 μM in the presence of CYP enzyme, NADP (1.3 mM), D-Glucose-6-phosphate (3.3 mM) and Glucose-6-phosphate dehydrogenase. Following incubation at 0 and 60 minutes, parent compound levels were determined using standard HPLC/MS/MS procedures. The results are expressed as percent parent compound remaining after 60 minutes.

Data set [1] can be described thus: Cytotoxicity (MTS) in CHO/CYP1A1 cells. Format: cell-based, Chinese Hamster. As to conditions: Chinese hamster; 96 h, MTS. As to the method: (§4) CHO/CYP1A1 and CHO/CYP1B1 cells: CHO cells containing recombinant CYP1A1 and recombinant CYP1B1 co-expressing P450 reductase, namely (CHO/CYP1A1) and (CHO/CYP1B1) respectively, were cultured using the standard culture medium for CHO cells supplemented with 0.4 mg/ml G418 disulfate salt and 0.3 μM methotrexate (Sigma/Aldrich Co., Gillingham, Dorset, UK) according to methods described in the literature (ibid.) Cells were grown at 37° C. in a humidified atmosphere plus 5% CO2.
as §2, §3

For another data set, the system named is CHO/CYP1A1 cells. Nature of the data set: Cytotoxicity (MTS) in CHO/CYP1A1 cells. In kind it is cell-based, Chinese Hamster. The procedure:
as §4, §2, §3

The term inhibition denotes the change of the read-out against control, counted positive when it falls. As usually defined, the IC50 is the concentration that gives 50% inhibition. High values mean weaker potency in that assay, low ones greater potency in that assay.

The structures appear in SMILES notation. A value given as a limit tells only on which side of the number the result lay.

CSK, sequence (P41240 whole entry, species assumed): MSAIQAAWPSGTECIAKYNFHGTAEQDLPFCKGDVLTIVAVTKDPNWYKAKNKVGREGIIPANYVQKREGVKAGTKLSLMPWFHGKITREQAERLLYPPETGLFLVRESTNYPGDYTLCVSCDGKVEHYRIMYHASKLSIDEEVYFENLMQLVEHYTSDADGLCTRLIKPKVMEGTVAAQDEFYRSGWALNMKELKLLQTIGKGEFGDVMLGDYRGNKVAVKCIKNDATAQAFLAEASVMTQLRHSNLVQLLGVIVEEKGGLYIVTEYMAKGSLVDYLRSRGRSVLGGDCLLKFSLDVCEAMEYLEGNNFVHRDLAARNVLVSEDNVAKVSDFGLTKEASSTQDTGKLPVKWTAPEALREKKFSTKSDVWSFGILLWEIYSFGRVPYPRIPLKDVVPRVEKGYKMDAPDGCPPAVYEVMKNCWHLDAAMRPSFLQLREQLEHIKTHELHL
C-Met (HGFR), sequence (P08581 25-1390): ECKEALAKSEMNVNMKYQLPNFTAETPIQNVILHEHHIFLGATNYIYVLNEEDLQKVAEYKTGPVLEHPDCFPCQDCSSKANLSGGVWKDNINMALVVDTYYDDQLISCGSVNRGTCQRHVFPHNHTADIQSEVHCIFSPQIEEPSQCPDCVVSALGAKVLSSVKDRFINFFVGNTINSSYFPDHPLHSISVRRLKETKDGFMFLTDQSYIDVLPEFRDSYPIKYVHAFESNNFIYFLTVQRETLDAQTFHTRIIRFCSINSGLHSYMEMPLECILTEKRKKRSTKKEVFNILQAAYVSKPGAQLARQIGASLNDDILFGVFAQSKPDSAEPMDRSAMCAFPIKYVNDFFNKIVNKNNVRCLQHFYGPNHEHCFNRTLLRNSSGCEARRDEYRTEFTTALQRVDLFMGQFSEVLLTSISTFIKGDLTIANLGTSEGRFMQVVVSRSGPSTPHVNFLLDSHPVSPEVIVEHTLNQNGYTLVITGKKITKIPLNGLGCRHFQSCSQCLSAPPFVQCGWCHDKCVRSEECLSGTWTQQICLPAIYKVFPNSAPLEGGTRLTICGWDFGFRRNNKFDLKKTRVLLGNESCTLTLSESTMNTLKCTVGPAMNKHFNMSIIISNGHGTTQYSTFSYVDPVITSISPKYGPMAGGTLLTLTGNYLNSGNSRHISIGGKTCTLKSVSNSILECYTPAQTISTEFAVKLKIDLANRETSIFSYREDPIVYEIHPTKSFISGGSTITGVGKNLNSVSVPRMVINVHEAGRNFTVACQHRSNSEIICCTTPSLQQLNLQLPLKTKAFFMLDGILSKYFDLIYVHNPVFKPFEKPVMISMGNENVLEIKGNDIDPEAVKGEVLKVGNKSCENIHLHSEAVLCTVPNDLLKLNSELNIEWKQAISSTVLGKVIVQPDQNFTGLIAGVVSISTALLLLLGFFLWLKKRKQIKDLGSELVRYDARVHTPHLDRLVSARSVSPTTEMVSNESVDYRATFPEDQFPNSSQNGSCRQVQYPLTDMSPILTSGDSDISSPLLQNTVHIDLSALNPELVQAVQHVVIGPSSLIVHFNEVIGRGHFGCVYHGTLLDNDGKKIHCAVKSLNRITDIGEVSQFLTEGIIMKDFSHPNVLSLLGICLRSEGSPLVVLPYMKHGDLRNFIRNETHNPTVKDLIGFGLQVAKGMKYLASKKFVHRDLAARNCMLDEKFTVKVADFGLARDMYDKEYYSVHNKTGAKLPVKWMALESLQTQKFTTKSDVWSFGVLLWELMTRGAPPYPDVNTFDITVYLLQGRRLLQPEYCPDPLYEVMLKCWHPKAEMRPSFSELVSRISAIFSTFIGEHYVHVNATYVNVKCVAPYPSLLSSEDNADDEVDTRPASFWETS
FLT-3, sequence (P36888 27-993, species assumed): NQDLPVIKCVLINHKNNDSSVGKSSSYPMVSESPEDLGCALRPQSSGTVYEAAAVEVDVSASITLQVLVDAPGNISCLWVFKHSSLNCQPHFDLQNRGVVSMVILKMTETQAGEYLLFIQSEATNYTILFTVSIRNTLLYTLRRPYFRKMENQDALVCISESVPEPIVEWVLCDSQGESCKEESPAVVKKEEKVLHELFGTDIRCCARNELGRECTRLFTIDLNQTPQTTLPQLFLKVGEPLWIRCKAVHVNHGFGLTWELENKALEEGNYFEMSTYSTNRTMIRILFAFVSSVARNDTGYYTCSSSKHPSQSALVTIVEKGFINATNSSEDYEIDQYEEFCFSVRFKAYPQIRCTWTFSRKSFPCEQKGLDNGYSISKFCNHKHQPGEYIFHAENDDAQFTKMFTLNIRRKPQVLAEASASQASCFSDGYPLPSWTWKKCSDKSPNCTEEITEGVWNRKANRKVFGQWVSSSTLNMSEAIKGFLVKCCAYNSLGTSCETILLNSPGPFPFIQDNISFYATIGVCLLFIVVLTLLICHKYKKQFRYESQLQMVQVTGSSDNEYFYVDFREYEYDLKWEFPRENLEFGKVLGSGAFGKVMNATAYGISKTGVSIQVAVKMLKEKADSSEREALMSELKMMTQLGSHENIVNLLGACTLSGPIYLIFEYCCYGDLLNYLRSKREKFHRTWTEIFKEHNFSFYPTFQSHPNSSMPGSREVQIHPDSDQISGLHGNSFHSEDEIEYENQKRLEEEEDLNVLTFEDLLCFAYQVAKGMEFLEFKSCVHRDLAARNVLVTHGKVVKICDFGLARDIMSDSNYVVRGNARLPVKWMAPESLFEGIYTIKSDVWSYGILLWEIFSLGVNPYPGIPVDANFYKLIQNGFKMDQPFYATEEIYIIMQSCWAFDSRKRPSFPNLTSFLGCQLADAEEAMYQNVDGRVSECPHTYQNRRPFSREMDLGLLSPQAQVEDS

As for `COc1ccc(-c2cc(-c3ccc4c(c3)OCO4)cc(=O)[nH]2)cc1OC` [Compound V], the inhibition at 10 µM was 19% at KDR (VEGFR2); 7% at PDGFRβ; 25% on Fyn; 13% on FGFR2; -5% at C-Met (HGFR); 21% on FLT-3. The inhibition at 10 µM was -1% on Lyn, 4% on CSK, -3% on FGFR4 and 11% at FLT-1. The “toxicity to wild-type CHO cells (in words)” value in the data set with wild-type CHO cells is “non toxic”. The same compound yielded an IC50 in the data set with wild-type CHO cells (Cricetulus griseus, CHO, 96 h, MTS) above 100 µM. Besides, the “Mean Parent Remaining (%)” value at CYP3A5 came out at 87%. This compound came in with a 50% inhibitory concentration (IC50) at 96 h in data set [1] above 100 µM. In addition, in the data set with CHO/CYP1A1 cells, the “toxicity / activity in CYP1A1 expressing CHO cells (in words)” value is “non toxic”.

These data come from patent US8236827B2, “Compounds” (Spear Therapeutics Limited, priority 2009, dated 2012).
